Tests used:
[1] = target: Epidermal growth factor receptor (Homo sapiens, UniProt P00533); test: Inhibition of epidermal growth factor receptor (EGF-R) autophosphorylation in A431 cells; format: functional, cell-based, A-431
[2] = target: Platelet-derived growth factor receptor beta (Rattus norvegicus, UniProt Q05030); test: Inhibition of PDGF-BB induced PDGF-B receptor autophosphorylation in rat mesangial cells.; format: functional, cell-based
[3] = target: Cyclin-dependent kinase 1 (Homo sapiens, UniProt P06493); test: Inhibition of Cdc2
[4] = target: Mitogen-activated protein kinase; ERK1/ERK2 (Homo sapiens, UniProt P27361+P28482); test: Inhibition of Mitogen-activated protein kinase; format: protein assay
[5] = target: cAMP-dependent protein kinase (PKA) (Homo sapiens, UniProt P22694+P17612+P22612); test: Inhibition of Protein kinase A; format: protein assay
[6] = target: Protein kinase C (PKC); test: Inhibition of Protein kinase C; format: protein assay
[7] = target: Proto-oncogene tyrosine-protein kinase Src (Homo sapiens, UniProt P12931); test: Inhibition of c-SRC
Proto-oncogene tyrosine-protein kinase Src, sequence (P12931 2-536 limits assumed): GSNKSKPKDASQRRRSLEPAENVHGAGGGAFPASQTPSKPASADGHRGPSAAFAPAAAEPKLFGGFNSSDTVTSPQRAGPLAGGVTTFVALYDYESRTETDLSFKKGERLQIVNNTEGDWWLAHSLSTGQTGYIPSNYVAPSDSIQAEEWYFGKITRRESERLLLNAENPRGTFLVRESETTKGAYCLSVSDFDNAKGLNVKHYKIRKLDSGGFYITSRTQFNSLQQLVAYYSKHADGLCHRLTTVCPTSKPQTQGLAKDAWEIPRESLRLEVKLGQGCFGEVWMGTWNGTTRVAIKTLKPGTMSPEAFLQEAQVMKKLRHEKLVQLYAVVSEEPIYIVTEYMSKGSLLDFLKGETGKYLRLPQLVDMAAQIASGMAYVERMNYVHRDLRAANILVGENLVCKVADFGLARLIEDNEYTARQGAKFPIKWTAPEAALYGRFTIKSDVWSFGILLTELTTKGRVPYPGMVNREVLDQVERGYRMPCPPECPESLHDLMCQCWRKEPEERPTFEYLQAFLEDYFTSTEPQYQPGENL

Epidermal growth factor receptor, sequence (P00533 whole entry): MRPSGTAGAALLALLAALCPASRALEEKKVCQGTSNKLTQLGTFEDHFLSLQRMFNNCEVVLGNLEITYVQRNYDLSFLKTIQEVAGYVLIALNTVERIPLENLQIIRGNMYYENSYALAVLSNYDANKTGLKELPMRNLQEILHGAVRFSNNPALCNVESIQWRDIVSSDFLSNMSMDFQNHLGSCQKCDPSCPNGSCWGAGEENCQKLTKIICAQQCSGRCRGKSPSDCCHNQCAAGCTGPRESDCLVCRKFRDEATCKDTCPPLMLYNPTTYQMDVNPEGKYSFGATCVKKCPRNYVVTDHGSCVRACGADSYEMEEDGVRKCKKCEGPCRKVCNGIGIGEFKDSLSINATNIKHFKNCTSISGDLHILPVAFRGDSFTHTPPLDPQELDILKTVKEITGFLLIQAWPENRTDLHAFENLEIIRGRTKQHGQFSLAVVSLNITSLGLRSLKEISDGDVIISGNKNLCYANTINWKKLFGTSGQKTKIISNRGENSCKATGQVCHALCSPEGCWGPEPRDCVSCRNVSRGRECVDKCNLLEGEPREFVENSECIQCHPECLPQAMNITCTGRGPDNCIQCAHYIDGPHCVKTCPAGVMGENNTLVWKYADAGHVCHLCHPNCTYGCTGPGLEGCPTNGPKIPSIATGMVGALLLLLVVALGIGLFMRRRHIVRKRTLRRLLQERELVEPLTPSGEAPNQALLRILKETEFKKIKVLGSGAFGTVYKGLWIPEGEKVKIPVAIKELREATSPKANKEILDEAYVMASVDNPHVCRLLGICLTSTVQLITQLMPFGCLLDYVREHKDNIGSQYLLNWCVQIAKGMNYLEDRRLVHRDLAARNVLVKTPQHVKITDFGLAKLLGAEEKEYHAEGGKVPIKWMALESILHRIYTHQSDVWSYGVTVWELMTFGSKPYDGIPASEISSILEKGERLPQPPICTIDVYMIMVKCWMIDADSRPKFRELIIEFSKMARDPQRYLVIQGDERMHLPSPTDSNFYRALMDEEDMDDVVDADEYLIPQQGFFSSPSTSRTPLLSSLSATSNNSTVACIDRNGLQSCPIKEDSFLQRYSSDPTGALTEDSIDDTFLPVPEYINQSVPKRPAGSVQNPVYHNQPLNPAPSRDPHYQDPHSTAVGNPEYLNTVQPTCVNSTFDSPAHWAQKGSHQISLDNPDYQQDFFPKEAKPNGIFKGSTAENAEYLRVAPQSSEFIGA
Platelet-derived growth factor receptor beta, sequence (Q05030 whole entry): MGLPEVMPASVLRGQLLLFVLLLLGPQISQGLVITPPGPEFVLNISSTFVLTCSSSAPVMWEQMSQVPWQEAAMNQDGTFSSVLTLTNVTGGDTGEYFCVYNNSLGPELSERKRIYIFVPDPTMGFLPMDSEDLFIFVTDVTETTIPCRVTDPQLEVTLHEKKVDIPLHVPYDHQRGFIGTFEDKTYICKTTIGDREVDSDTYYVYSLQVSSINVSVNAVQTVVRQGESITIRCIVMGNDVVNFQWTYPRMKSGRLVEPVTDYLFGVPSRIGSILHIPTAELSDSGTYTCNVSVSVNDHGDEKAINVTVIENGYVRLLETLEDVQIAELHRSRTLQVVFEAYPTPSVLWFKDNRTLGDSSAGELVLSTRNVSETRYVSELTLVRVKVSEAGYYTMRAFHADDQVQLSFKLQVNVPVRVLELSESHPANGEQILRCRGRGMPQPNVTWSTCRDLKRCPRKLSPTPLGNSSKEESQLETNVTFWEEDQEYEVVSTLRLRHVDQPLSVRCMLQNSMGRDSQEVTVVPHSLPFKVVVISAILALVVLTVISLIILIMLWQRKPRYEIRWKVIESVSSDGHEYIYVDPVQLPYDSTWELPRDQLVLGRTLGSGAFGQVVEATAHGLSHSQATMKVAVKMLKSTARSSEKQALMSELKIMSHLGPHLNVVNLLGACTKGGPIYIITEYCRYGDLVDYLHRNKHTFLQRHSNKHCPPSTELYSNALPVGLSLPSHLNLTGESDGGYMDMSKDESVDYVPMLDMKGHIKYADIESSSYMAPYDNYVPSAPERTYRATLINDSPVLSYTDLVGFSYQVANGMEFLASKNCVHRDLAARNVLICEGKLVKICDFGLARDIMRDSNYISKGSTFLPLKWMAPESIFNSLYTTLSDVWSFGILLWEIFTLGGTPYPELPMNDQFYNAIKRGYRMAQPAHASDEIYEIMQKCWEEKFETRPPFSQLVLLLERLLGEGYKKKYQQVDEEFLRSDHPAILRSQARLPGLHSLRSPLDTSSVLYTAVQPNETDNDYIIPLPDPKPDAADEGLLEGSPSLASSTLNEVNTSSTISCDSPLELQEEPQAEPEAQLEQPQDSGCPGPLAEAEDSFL
Cyclin-dependent kinase 1, sequence (P06493 whole entry): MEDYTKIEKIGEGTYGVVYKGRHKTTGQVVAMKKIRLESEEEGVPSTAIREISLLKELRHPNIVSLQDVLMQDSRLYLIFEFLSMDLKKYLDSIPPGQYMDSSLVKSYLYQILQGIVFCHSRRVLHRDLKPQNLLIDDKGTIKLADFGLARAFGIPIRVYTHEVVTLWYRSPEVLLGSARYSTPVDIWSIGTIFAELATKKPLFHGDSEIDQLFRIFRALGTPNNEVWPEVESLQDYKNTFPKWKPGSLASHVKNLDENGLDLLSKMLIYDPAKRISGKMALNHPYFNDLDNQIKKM

SMILES	IC50 [2] [µM]	other results
COc1ccc(Nc2ncnc3cc(OC)c(OC)cc23)cc1OC	4.5	IC50 [1]: 2800 nM
CCc1cccc(Oc2ccnc3cc(OC)c(OC)cc23)c1	8.4	–
COc1cc2nccc(Oc3cccc(O)c3)c2cc1OC	0.56	–
COc1cc2nccc(Oc3cccc(Br)c3)c2cc1OC	8.4	IC50 [1]: 2500 nM
COc1cc(OC)cc(Oc2ccnc3cc(OC)c(OC)cc23)c1	5.5	–
COc1cc2nccc(Oc3cccc(F)c3)c2cc1OC	1.5	–
COc1cc2nccc(Oc3c(OC)cccc3OC)c2cc1OC	69.3	–
COc1cc2nccc(Oc3cccc(N)c3)c2cc1OC	1.7	–
COc1ccc(Oc2ccnc3cc(OC)c(OC)cc23)cc1OC	–	IC50 [3]: > 10 µM; IC50 [4]: > 10 µM; IC50 [5]: > 10 µM; IC50 [6]: > 20 µM; IC50 [7]: > 10 µM
COc1cc2nccc(Oc3ccccc3)c2cc1OC	0.76	–
COc1cc2nccc(Oc3ccccc3OC)c2cc1OC	0.6	–
COc1ccc(Oc2ncnc3cc(OC)c(OC)cc23)cc1OC	0.57	IC50 [1]: > 100000 nM
COc1ccc(Nc2ccnc3cc(OC)c(OC)cc23)cc1OC	2.6	IC50 [1]: 80500 nM
COc1cc2nccc(Oc3cccc(OC)c3OC)c2cc1OC	4.4	–
CCOc1cccc(Oc2ccnc3cc(OC)c(OC)cc23)c1	12.9	–
COc1cc2nccc(Nc3cccc(Br)c3)c2cc1OC	21.5	–
COc1ccc(Oc2ccnc3cc(OC)c(OC)cc23)cc1	1.9	–
COc1cc2ncnc(Oc3cccc(Br)c3)c2cc1OC	14.8	IC50 [1]: 70 nM
COc1cc2nccc(Oc3cccc(C)c3)c2cc1OC	6.9	–
COc1cc2nccc(Oc3cccc([N+](=O)[O-])c3)c2cc1OC	0.7	–

— ChEMBL document CHEMBL1152084 (Bioorg Med Chem Lett, 1997)
